Patent US20170202932A1, “METHODS FOR INHIBITING NEURON APOPTOSIS AND NECROSIS” (NEWSOUTH INNOVATIONS PTY LIMITED, priority 2012, published 2017)

Assays:
[1] = biological target: T1, recombinant mouse TRPC3c channels (Mus musculus, UniProt Q9QZC1, DEL811-838); test: Indo-1 ratiometric Ca2+ imaging of CCh-activated Ca2+ entry, HEK293 cells expressing TRPC3c; type: cell-based; conditions: genistein 200 μM pre-incubation, n=5, without genistein 575.6±44.2 nM
T1 construct: expressed in transfected cells; host or cells: HEK293 cells, stably transfected (pIRES-DsRed2 vector)
T1 sequence (Q9QZC1 with tags, fused parts or gaps DEL811-838): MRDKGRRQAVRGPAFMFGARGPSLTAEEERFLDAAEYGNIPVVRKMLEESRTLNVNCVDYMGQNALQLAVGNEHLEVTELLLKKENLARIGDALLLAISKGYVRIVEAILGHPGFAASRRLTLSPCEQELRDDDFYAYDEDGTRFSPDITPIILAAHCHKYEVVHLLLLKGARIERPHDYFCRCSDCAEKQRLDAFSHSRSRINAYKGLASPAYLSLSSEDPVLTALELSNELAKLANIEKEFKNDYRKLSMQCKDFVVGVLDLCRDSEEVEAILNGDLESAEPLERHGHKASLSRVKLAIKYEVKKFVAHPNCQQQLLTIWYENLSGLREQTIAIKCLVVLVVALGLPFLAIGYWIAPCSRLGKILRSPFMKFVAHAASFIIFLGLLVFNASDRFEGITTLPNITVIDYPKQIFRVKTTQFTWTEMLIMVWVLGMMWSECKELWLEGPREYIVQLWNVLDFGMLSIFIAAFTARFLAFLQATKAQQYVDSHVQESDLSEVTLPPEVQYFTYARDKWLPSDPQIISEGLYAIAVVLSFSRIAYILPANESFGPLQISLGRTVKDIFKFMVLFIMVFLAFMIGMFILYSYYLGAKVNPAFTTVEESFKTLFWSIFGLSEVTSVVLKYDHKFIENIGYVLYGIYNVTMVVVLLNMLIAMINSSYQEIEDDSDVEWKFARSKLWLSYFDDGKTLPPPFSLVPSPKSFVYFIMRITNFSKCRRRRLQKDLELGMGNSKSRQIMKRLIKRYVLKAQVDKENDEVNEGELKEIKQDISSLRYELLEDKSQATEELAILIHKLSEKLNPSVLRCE
Procedure: The TRPC3-mediated Ca^2+ entry through two distinct activation pathways was assessed by microfluorometric Ca^2+ imaging: i) Ca^2+ entry via the M3 receptor-PLCB-DAG pathway endogenous to HEK293 cells, using Indo-1 as a Ca^2+ indicator; and ii) Ca^2+ entry via mGluR1-PLCB-DAG through co-expression of the mGluR1, using Fluo-4 as a Ca^2+ indicator.
Cells were grown in DMEM media on 18 mm circular coverslips coated with poly-D-lysine (25 μg/ml) and collagen (25 μg/ml) at 1:1 ratio. The cells were washed with HPSS. The coverslips were then incubated with HPSS and 0.1% pluronic acid, along with either 1 μM Indo-1AM or Fluo-4AM Ca^2+ indicator (Invitrogen, U.S.A.) for an hour prior to the experiment. The cells were then placed into HPSS with 5 μM GdCl3 to block endogenous Ca^2+ entry (added to all superfusions). The M3 AChR-mediated TRPC3 activation was achieved by bath application of carbachol. The mGluR1-mediated TRPC3 activation was achieved by bath application of DHPG.
For Indo-1 experiments, the cells were mounted on a Nikon TMD inverted microscope fitted with an Indo-1 filter set (Nikon Indo-1 filter cube, 485 nm/DM455 nm/405 nm) and illuminated with a mercury lamp. Cells were excited at 350 nm, with dual emission of the field was detected at 410 nm and 480 nm using two photomultiplier tubes, and the ratioed emission was determined in real-time using in-house software. […]

[2] = biological target: T2, Purkinje cell TRPC3 channels (Mus musculus, UniProt Q9QZC1, DEL811-838); test: Whole-cell voltage clamp of DHPG-evoked inward current in Purkinje cells of cerebellar brain slices; type: cell-based
T2 construct: from tissue; host or cells: parasagittal cerebellar brain slices, C129-SvEv mice, Purkinje neurons
T2 sequence (Q9QZC1 with tags, fused parts or gaps DEL811-838): T1 sequence (Q9QZC1 with tags, fused parts or gaps DEL811-838)
Procedure: TRPC3c-mediated current in cerebellar Purkinje cells was then assessed. Parasagittal cerebellar brain slices (400 μm) were prepared using standard techniques (Power and Sah, (2007) J. Physiol. 580:835-57). Mice (C129-SvEv strain, 4-8 weeks old) were anaesthetized with pentobarbital and decapitated. The brain was removed and submerged in an ice cold modified artificial cerebral spinal fluid (ACSF) solution containing 119 mM NaCl, 2.5 mM KCl, 3.3 mM MgCl2, 0.5 mM CaCl2, 1.0 mM Na2PO4, 26.2 mM NaHCO3, 11 mM glucose, equilibrated with 95% CO2, 5% 02. Slices were cut with a VT1200 vibratome (Leica, Germany) and were allowed to recover for at least 1 h at room temperature in a standard ACSF solution containing 119 mM NaCl, 2.5 mM KCl, 1.3 mM MgCl2, 2.5 mM CaCl2, 1.0 mM Na2PO4, 26.2 mM NaHCO3, 11 mM glucose, equilibrated with 95% CO2, 5% O2.
For recording, slices were transferred to the stage of a Zeiss Examiner D1 microscope and continuously perfused with ACSF heated to 30° C. Whole-cell patch-clamp recordings were made from the soma of Purkinje neurons identified using infrared differential interference contrast videomicroscopy. Patch pipettes (3-5 MΩ) were filled with an internal solution containing 135 mM Cesium methanesulfonate, 8 mM NaCl, 10 mM HEPES, 2 mM Mg2ATP, 0.3 mM Na3GTP, 0.1 spermine (pH 7.3 with KOH, osmolarity 290-300 mosmol l^−1). Alexa 594 (30 μM; Invitrogen, U.S.A.) was added to the internal solution to visualise the dendritic tree. Whole-cell currents at a holding potential of −70 mV were amplified with an Axopatch 2B amplifier (Molecular Devices, U.S.A.), filtered at 5 kHz and digitized at 20 kHz with a Digidata1440 (Molecular Devices), and controlled using pClamp 10.2 Software (Molecular Devices). Whole-field fluorescence measurements were made with a 40× water immersion objective (NA 1.0; Zeiss, Germany) using a F43 filter block; excitation 545/25 nm; dichroic 570 nm, emission 605/70 nm. Images were acquired with a cooled CCD camera (ProgRes MF-Cool, Jenoptik, Germany) DHPG (50 μM) was applied onto the dendritic field by focal pressure application (in ACSF) through a patch pipette.

O=c1c(-c2ccc(O)cc2)coc2cc(O)cc(O)c12 [genistein, 4′, 5,7-trihydroxyisoflavone]
peak [Ca2+] on return of extracellular Ca2+ (CCh-activated Ca2+ entry) [1]: 81.9 ± 19.8 nM | peak of the DHPG-evoked current ([2]; 15 min after genistein 100 μM, before genistein −400±55 pA): −77±50 pA | integrated area of the DHPG-evoked current (net charge) ([2]; after genistein 100 μM, before genistein −878±11 pC): −74±105 pC | time over which block of the current was produced ([2]; genistein 100 μM bath application): 10 to 15 min | reduction of DHPG-evoked Purkinje cell inward current ([2]; genistein 100 μM, DHPG 50 μM, holding −70 mV, n=3): 90±12%
